Measured values: publication PMC9928118, “Funneling modulatory peptide design with generative models: Discovery and characterization of disruptors of calcineurin protein-protein interactions” (PLOS Computational Biology, 2023)
Each block holds one sequence with its values, some of them ahead of it.

Test system: GST-tagged Cn
Assay: PEPperPRINT peptide microarray binding assay with GST-tagged Cn
Excerpt: We then estimated in-silico the binding strength of the various peptides to Cn by template-based docking followed by flexible backbone refinement using Modeller and PepCrawler (Figs 4 and S4). In parallel, we performed a medium-throughput qualitative binding assay using a PEPperPRINT peptide microarray to evaluate the direct binding of Cn to selected peptides (Figs 4 and S5, S3 Data).
Fig 4 Medium-throughput filtering by structural modeling and microarray screening. (a) Depiction of the structural modeling protocol: after alignment to the known PxIxIT binding site, an efficient flexible backbone structure refinement algorithm is applied to estimate the docking energy. […] (c) Coefficients of the equivalent single-site model fitted by sparse linear regression, shown in weight logo representation. […] Colors indicate physical property (black = hydrophobic, red = negatively charged, etc.). (d) Per-gene distribution of docking scores across natural fragments (lower is better). […] (e) Overview of the microarray screening. Peptides are printed on the chip (two circles per peptide). After pouring of Cn and subsequent washing, fluorescent-tagged, a Cn-targeting antibody is overlaid and an image is taken. Fluorescent spots indicate strong Cn binders. (f) Scatter plot of the sequence likelihood (normalized by length, higher is better) against fluorescence level (higher is better, see Methods for details of the data analysis).
In parallel, selected peptides were tested for Cn binding on a chip microarray (PEPperPRINT). 786 peptides were printed on the chip and were incubated with GST-tagged Cn overnight at 4°C. Following extensive washing, binding was detected by applying a fluorescently labeled (Alexa-Fluor 647) GST antibody. […] The experiment was repeated five times, and Z-normalized fluorescence levels were determined following post-processing of the raw data (Methods, S5A, S5B and S5C Fig).
The peptide array was prepared as a custom array pepper chip (PEPperPRINT). For binding detection, 1mg/ml GST-tagged Cn was incubated overnight on the microarray at 4°C. Following extensive washing, fluorescently labeled (Alexa-Fluor 647) GST-antibody. […] The experiment was repeated five times. Each scan was analyzed as follows: a grid was overlaid using the border HA markers to determine regions of interest (ROI) for each peptide (two ROIs per peptide) and the logarithm of the average fluorescence intensity was computed for each ROI. […] To remove spatial artifacts, a position-dependent baseline fluorescence was fitted using a second-order polynomial, and subtracted to the fluorescence. Fluorescence levels were next averaged over the two ROI for each peptide and Z-normalized. […] The Z-scores were averaged over the five repetitions to yield one fluorescence score per peptide.

[1] = GST-tagged Cn, max over the spots on the chip (two locations)
[2] = GST-tagged Cn, mean over the spots on the chip (two locations)
[3] = max over the chip locations listed for the peptide (two spots)
[4] = mean over the chip locations listed for the peptide (two spots)
[5] = GST-tagged Cn, max over the chip spots listed under Location on chip
[6] = GST-tagged Cn, mean over the chip spots listed under Location on chip
[7] = max over the spots listed under Location on chip
[8] = mean over the spots listed under Location on chip
[9] = GST-tagged Cn, max over the spots named in Location on chip
[10] = GST-tagged Cn, mean over the spots named in Location on chip
[11] = GST-tagged Cn, max over the chip locations
[12] = GST-tagged Cn, mean over the chip locations

Chip Fluorescence (max) [1]: 1.092
Chip Fluorescence (mean) [2]: 0.4965
Sequence: TFWTNPQYRLKLEEVD [SeqRBMlowT_1143]

Chip Fluorescence (max) [3]: 3.709
Chip Fluorescence (mean) [4]: 0.2678
Sequence: QRFFCVRYDVNPCINW [Seqrandom_9944]

Chip Fluorescence (max) [1]: 1.036
Chip Fluorescence (mean) [2]: -0.9088
Sequence: QTSCLPFPVVNSQEGQ [SeqRBM_2540]

Chip Fluorescence (max) [1]: 1.029
Chip Fluorescence (mean) [2]: 0.2404
Sequence: LKDEFPEVRLNIISNL [SeqRBMlowT_1004]

Chip Fluorescence (max) [5]: 0.5936
Chip Fluorescence (mean) [6]: -1.087
Sequence: HSKLIPKLSISSPVHH [SeqRBMlowT_1731]

Chip Fluorescence (max) [1]: 1.162
Chip Fluorescence (mean) [2]: -0.4848
Sequence: STSSLPTFSFSSLAPS [SeqRBMlowT_2354]

Chip Fluorescence (max) [3]: 3.637
Chip Fluorescence (mean) [4]: -0.2581
Sequence: GTSGGFPQTDRSHKKQ [SeqRBM_413]

Sequence: RTYMNPFASFLDHSHR [SeqSFB3_Pseudocercospora_musae]
Chip Fluorescence (max) [1]: 1.14
Chip Fluorescence (mean) [2]: -0.1201

Chip Fluorescence (max) [7]: 3.405
Chip Fluorescence (mean) [8]: 0.7303
Sequence: TYWTNPQFRVTLEDPD [SeqRBMlowT_4395]

Sequence: ADEAIPKIVIHPPEEP [SeqRBMlowT_1972]
Chip Fluorescence (max) [7]: 3.233
Chip Fluorescence (mean) [8]: -0.1428

Chip Fluorescence (max) [1]: 1.129
Chip Fluorescence (mean) [2]: 0.3513
Sequence: SFWTNPQFRVKLEEVD [SeqRBMlowT_8566]

Chip Fluorescence (max) [3]: 4.964
Chip Fluorescence (mean) [4]: 1.374
Sequence: GTETTPSIVVHVCEDD [SeqRBMlowT_128]

Chip Fluorescence (max) [3]: 3.672
Chip Fluorescence (mean) [4]: 2.469
Sequence: TFWTNPQFRIKLEEVD [SeqRBMlowT_2987]

Chip Fluorescence (max) [1]: 1.265
Chip Fluorescence (mean) [2]: -1.213
Sequence: SSSSLPTFQFSTPATL [SeqRBM_7341]

Chip Fluorescence (max) [9]: 1.458
Chip Fluorescence (mean) [10]: -0.38
Sequence: PQMAPPAINIDFAPTN [SeqRBMlowT_2475]

Chip Fluorescence (max) [1]: 1.138
Chip Fluorescence (mean) [2]: 0.2992
Sequence: RAYINPFMQFNDGGSR [SeqRBM_9542]

Chip Fluorescence (max) [11]: -0.228
Chip Fluorescence (mean) [12]: -0.7974
Sequence: HISSSPDITATPTQHR [SeqRIPOR2_Calypte_anna]

Chip Fluorescence (max) [11]: -0.3986
Chip Fluorescence (mean) [12]: -1.022
Sequence: ATSGTFPQTDGSHKKQ [SeqRBMlowT_7701]

Chip Fluorescence (max) [5]: 0.8365
Chip Fluorescence (mean) [6]: -0.3514
Sequence: TFWTNPQFRLKLEDPD [SeqRBMlowT_699]

Chip Fluorescence (max) [7]: 3.077
Chip Fluorescence (mean) [8]: 0.4499
Sequence: TFWMNPQFKINLEEED [SeqCAPN11_Salmo_salar]

Chip Fluorescence (max) [9]: 1.765
Chip Fluorescence (mean) [10]: 0.8018
Sequence: TFWINPQFKVRLDEID [SeqCAPN11_Boiga_irregularis]

Chip Fluorescence (max) [5]: 0.7621
Chip Fluorescence (mean) [6]: -0.8277
Sequence: SAASFRIKQIEFMVSA [Seqshuffled_4815]

Chip Fluorescence (max) [9]: 1.597
Chip Fluorescence (mean) [10]: -0.04342
Sequence: KAYMSPFMQFVDAGRR [SeqSFB3_Nasonia_vitripennis]

Chip Fluorescence (max) [5]: 0.7712
Chip Fluorescence (mean) [6]: -0.3628
Sequence: RQPGTLGLTLEGHSNS [SeqRBM_7786]

Chip Fluorescence (max) [3]: 3.823
Chip Fluorescence (mean) [4]: 1.0203
Sequence: GTESTPSVVVHVCESE [SeqRCN1_Pongo_abelii]

Sequence: ESSTTPGVVVHICEDD [SeqRBM_7485]
Chip Fluorescence (max) [3]: 8.839
Chip Fluorescence (mean) [4]: 1.544

Chip Fluorescence (max) [7]: 3.195
Chip Fluorescence (mean) [8]: 0.7018
Sequence: SPSNPPEIIISSREDN [SeqKCNN2_Mus_musculus]

Chip Fluorescence (max) [11]: -0.1629
Chip Fluorescence (mean) [12]: -1.069
Sequence: DSLKIPQVRMRIDSAT [SeqRBM_3711]

Chip Fluorescence (max) [1]: 1.159
Chip Fluorescence (mean) [2]: -0.3352
Sequence: RNPGSPTLELNGHSGG [SeqRBM_9695]

Chip Fluorescence (max) [5]: 0.8765
Chip Fluorescence (mean) [6]: 0.0532
Sequence: TFWTNPQYRITLEEVD [SeqRBMlowT_98]

Chip Fluorescence (max) [3]: 7.244
Chip Fluorescence (mean) [4]: 0.4206
Sequence: GAWGLNKSGLFLINEV [Seqshuffled_9399]

Chip Fluorescence (max) [3]: 17.6628
Chip Fluorescence (mean) [4]: 2.99
Sequence: ADEAIPEITITSAELP [SeqRBMlowT_2514]

Sequence: RAYINPFMQFQDGGQR [SeqRBMlowT_1515]
Chip Fluorescence (max) [9]: 1.533
Chip Fluorescence (mean) [10]: -0.1627

Chip Fluorescence (max) [1]: 1.271
Chip Fluorescence (mean) [2]: 0.8684
Sequence: TTWLVVFMIPELMKLS [Seqshuffled_9855]

Chip Fluorescence (max) [1]: 0.9878
Chip Fluorescence (mean) [2]: -0.982
Sequence: TSSSLPTFNFSSSVIT [SeqNUP153_Canis_lupus]

Chip Fluorescence (max) [7]: 3.384
Chip Fluorescence (mean) [8]: 0.265
Sequence: TFWTNPQYRITLEEED [SeqRBMlowT_1109]

Chip Fluorescence (max) [9]: 1.553
Chip Fluorescence (mean) [10]: -0.6579
Sequence: MLSIRPSARLKIPQHR [SeqRBM_1889]

Chip Fluorescence (max) [11]: -0.2197
Chip Fluorescence (mean) [12]: -1.424
Sequence: STSSLPTFSFSSPLPT [SeqRBMlowT_898]

Chip Fluorescence (max) [5]: 0.7747
Chip Fluorescence (mean) [6]: -0.7747
Sequence: KHATSPRINITQTSTL [SeqRBM_2048]

Chip Fluorescence (max) [9]: 1.404
Chip Fluorescence (mean) [10]: 0.3806
Sequence: SSMAPPAINIDFAPTN [SeqRBMlowT_1806]

Chip Fluorescence (max) [1]: 1.28
Chip Fluorescence (mean) [2]: 0.6681
Sequence: PDEAQPGIVVHVCELP [SeqRBMlowT_301]

Chip Fluorescence (max) [5]: 0.7358
Chip Fluorescence (mean) [6]: -0.1667
Sequence: SQMGKSRPWVSPERDN [SeqRBM_2721]

Chip Fluorescence (max) [3]: 4.819
Chip Fluorescence (mean) [4]: 0.7359
Sequence: RTRRISPLFDNPNSKQ [Seqshuffled_9774]

Chip Fluorescence (max) [3]: 6.02
Chip Fluorescence (mean) [4]: 1.294
Sequence: TFWTNPQYRLKLEDVD [SeqRBMlowT_929]

Sequence: KDMLIPRPSSQDSGAY [SeqRBM_5587]
Chip Fluorescence (max) [9]: 1.626
Chip Fluorescence (mean) [10]: -0.4019

Chip Fluorescence (max) [3]: 9.285
Chip Fluorescence (mean) [4]: 1.035
Sequence: LDEAIPEIVISPPETP [SeqRBMlowT_4410]

Chip Fluorescence (max) [7]: 2.636
Chip Fluorescence (mean) [8]: -0.01431
Sequence: PKMAPPAINIDFAPTN [SeqRBMlowT_1805]

Chip Fluorescence (max) [9]: 1.7877
Chip Fluorescence (mean) [10]: -0.1207
Sequence: TFWDNPQYQIKLNDPD [SeqRBM_8698]

Chip Fluorescence (max) [3]: 5.264
Chip Fluorescence (mean) [4]: 0.1816
Sequence: ADEAPPEITITPAELP [SeqRBMlowT_445]

Chip Fluorescence (max) [7]: 3.363
Chip Fluorescence (mean) [8]: 0.477
Sequence: LNRIEIFVTFNFTRNS [Seqshuffled_5110]

Chip Fluorescence (max) [7]: 3.012
Chip Fluorescence (mean) [8]: 0.475
Sequence: RNPESPSLFLEGHLSR [SeqRBMlowT_8778]

Chip Fluorescence (max) [5]: 0.4069
Chip Fluorescence (mean) [6]: -0.3301
Sequence: RNPGQALLELRGHSAS [SeqRBMlowT_6125]

Chip Fluorescence (max) [1]: 1.104
Chip Fluorescence (mean) [2]: 0.3317
Sequence: TFWTNPQYRITLEEPD [SeqRBMlowT_212]

Chip Fluorescence (max) [3]: 4.384
Chip Fluorescence (mean) [4]: 0.9288
Sequence: GGPGTPTRQGQPLAPS [SeqRBMlowT_7789]

Chip Fluorescence (max) [11]: 0.2772
Chip Fluorescence (mean) [12]: -0.7766
Sequence: HVSSSPDITVTPTQHR [SeqRBMlowT_701]

Chip Fluorescence (max) [7]: 3.006
Chip Fluorescence (mean) [8]: 0.9242
Sequence: TFWTNPQYRIKLEEAD [SeqRBMlowT_241]

Chip Fluorescence (max) [11]: 0.2205
Chip Fluorescence (mean) [12]: -0.7902
Sequence: KSKLIPKLSFQSPVHH [SeqRBMlowT_3425]

Chip Fluorescence (max) [1]: 1.204
Chip Fluorescence (mean) [2]: -0.1516
Sequence: KAYMNPYMQFIDGGRR [SeqRBMlowT_4720]

Chip Fluorescence (max) [11]: 0.1809
Chip Fluorescence (mean) [12]: -0.5839
Sequence: HSKLIPKLSIQSPVHH [SeqRBMlowT_822]

Chip Fluorescence (max) [3]: 3.4958
Chip Fluorescence (mean) [4]: 1.049
Sequence: TFHTNPQYRIKLEEPD [SeqRBMlowT_4495]

Chip Fluorescence (max) [3]: 4.705
Chip Fluorescence (mean) [4]: 1.485
Sequence: NIEKMPELQACGHTSF [SeqRBM_2022]

Chip Fluorescence (max) [3]: 4.744
Chip Fluorescence (mean) [4]: 1.033
Sequence: RKDSAVTQWGFSNLWA [Seqrandom_9950]

Sequence: PVHTIHRVSLQDAGKY [SeqCEACAM5_Aedes_aegypti]
Chip Fluorescence (max) [5]: 0.8319
Chip Fluorescence (mean) [6]: -0.7144

Chip Fluorescence (max) [3]: 8.388
Chip Fluorescence (mean) [4]: 2.901
Sequence: CDHMGLDIVIFVTELC [SeqRBM_1060]

Chip Fluorescence (max) [11]: -0.2579
Chip Fluorescence (mean) [12]: -0.9244
Sequence: RNYINPQAQFTYDSGA [SeqRBM_6031]

Chip Fluorescence (max) [3]: 4.921
Chip Fluorescence (mean) [4]: 0.2408
Sequence: ARSFCPHRQVLSCKPK [SeqRBM_8304]
